pIC50: −log10 of the molar value.

For assay [1], the target named is KRAS^G12C (Homo sapiens, UniProt P01116, C118A/G12C). The assay can be described thus: Coupled Nucleotide Exchange Assay. It is filed as biochemical. The note with it: GDP-bound KRAS (aa 1-169) G12C/C118A; 2 h compound pre-incubation; SOS-mediated exchange, 30 min; cRAF binding (AlphaLISA). The gist of the method:
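GDP-bound His-tagged KRAS aa 1-169 (G12C/C118A) pre-incubated 2 h with compound in 25 mM HEPES pH 7.4, 10 mM MgCl2, 0.01% Triton X-100 (±0.1% BSA), then SOS (aa 564-1049) plus GTP added for 30 min. GST-cRAF RBD binding read by AlphaLISA; DMSO-normalized, 4-parameter fit gives IC50.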

Assay [2] concerns MIA PaCa-2 cells. The assay can be described thus: Cell Viability Assay, MIA PaCa-2. It is filed as cell-based. The note with it: human pancreatic carcinoma, CellTiter-Glo. The method, then:
(§1) MIA PaCa-2 (human pancreatic carcinoma; ATCC CRL-1420) or A549 (human lung carcinoma; ATCC CCL-185) cells were cultured in RPMI 1640 medium containing 10% fetal bovine serum and 1×penicillin/streptomycin/L-glutamine. Cells were seeded in 384-well plates at a density of 1.67E+04 cells/mL and incubated at 37° C., 5% CO2, overnight. Serially-diluted compound or DMSO was added to the cells, and plates were incubated at 37° C., 5% CO2 for 72 h. Cell viability was measured using a CellTiter-Glo® Luminescent Cell Viability Assay kit (Promega) according to the manufacturer's protocol. The luminescence signal of treated samples was normalized to DMSO control, and data were analyzed using a 4-parameter logistic model to calculate IC50 values.
(§2) The following data (Table 3) categorizes the IC50 of each compound for inhibiting enzymatic activity of KRAS^G12C in the indicated cells.
Background: In ATP-based viability assays light output follows the ATP content of the culture.

Assay [3] relates to A549 cells. The assay can be described thus: Cell Viability Assay, A549. The note with it: human lung carcinoma, 72 h, CellTiter-Glo. The assay is classed as cell-based. The procedure: as §1, §2

KRAS^G12C, sequence (P01116 1-169 isoform P01116-2 G12C/C118A): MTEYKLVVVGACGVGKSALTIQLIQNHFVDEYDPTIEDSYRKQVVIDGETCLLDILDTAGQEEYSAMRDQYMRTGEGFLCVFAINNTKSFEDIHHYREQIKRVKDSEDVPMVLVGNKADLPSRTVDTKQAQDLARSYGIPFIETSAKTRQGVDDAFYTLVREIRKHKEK

Regarding `C=CC(=O)N1CCN([C@@H]2CN(c3cc(N4CC[C@]5(C[C@H]4C)OC[C@H](CO)n4ncc(C)c45)nc(C(F)(F)F)n3)[C@@H]2C)CC1` (single isomer, unassigned) [Compound 3-087-2], the pIC50 in assay [1] was 7.06; in assay [2] (Homo sapiens, MIA PaCa-2, 72 h), 6.85; in assay [3] (A549), less than 5.30.

Consider `C=CC(=O)N1CCN([C@@H]2CN(c3cc(N4CC[C@]5(C[C@H]4C)OC[C@H](COC)n4ncc(C)c45)nc(C(F)(F)F)n3)[C@@H]2C)CC1` (single isomer, unassigned) [Compound 3-089-1], for which the pIC50 was 7.38 in assay [1]; 6.99 in assay [2] (Homo sapiens, MIA PaCa-2, 72 h); less than 5.30 in assay [3] (A549).

For the compound `C=CC(=O)N1CCN(C2CN(c3cc(N4CCC5(CC4)OCc4ccccc45)nc(C(F)(F)F)c3C#N)C2)CC1` [Compound 3-028, 4-(3-(4-acryloylpiperazin-1-yl)azetidin-1-yl)-6-(3H-spiro[isobenzofuran-1,4′-piperidin]-1′-yl)-2-(trifluoromethyl)nicotinonitrile], the pIC50 is 5.75 in assay [1]; 5.87 in assay [2] (Homo sapiens, MIA PaCa-2, 72 h); less than 5.48 in assay [3] (A549).

`C=CC(=O)N1CCN([C@@H]2CN(c3cc(N4CCC5(CC4)OCCn4ncc(C)c45)nc(C(F)(F)F)n3)[C@@H]2C)CC1` [Compound 3-076, 1-(4-((2R,3R)-2-Methyl-1-(6-(3′-methyl-6′,7′-dihydrospiro[piperidine-4,4′-pyrazolo[5,1-c][1,4]oxazin]-1-yl)-2-(trifluoromethyl)pyrimidin-4-yl)azetidin-3-yl)piperazin-1-yl)prop-2-en-1-one]: the pIC50 was 7.14 in assay [1]; 6.67 in assay [2] (Homo sapiens, MIA PaCa-2, 72 h); less than 5.30 in assay [3] (A549).

On to `C=CC(=O)N1CCN(C2CN(c3cc(N4CCC5(CC4)O[C@H](C)C=C5Cl)nc(C(F)(F)F)c3C#N)C2)CC1` (single isomer, unassigned) [Compound 3-067-1], for which the pIC50 was 6.28 in assay [1]; 5.88 in assay [2] (Homo sapiens, MIA PaCa-2, 72 h); less than 5.30 in assay [3] (A549).

Regarding `C=CC(=O)N1CCN([C@@H]2CN(c3cc(N4CCC5(CC4)OC4(COC4)c4nccc(C)c45)nc(C(F)F)n3)[C@@H]2C)CC1` [Compound 3-103, 1-(4-((2R,3R)-1-(2-(difluoromethyl)-6-(4′-methyl-1″H-dispiro[oxetane-3,7′-furo[3,4-b]pyridine-5′,4″- piperidin]-1″-yl)-4-pyrimidinyl)-2-methyl-3-azetidinyl)-1-piperazinyl)-2-propen-1-one], the pIC50 in assay [1] is 7.44; in assay [2] (Homo sapiens, MIA PaCa-2, 72 h) it was 6.77; in assay [3] (A549), less than 5.30.

Take `C=CC(=O)N1CCN([C@@H]2CN(c3cc(N4CC[C@]5(C[C@H]4C)OCCn4ncc(C)c45)nc(C(F)F)n3)[C@@H]2C)CC1` [Compound 3-078, 1-(4-((2R,3R)-1-(2-(difluoromethyl)-6-((2R,4R)-2,3′-dimethyl-6′,7′-dihydro-1H-spiro[piperidine-4,4′-pyrazolo[5.1-c][1,4]oxazin]-1-yl)-4-pyrimidinyl)-2-methyl-3-azetidinyl)-1-piperazinyl)-2-propen-1-one]: the pIC50 in assay [1] is 7.05; in assay [2] (Homo sapiens, MIA PaCa-2, 72 h), 6.41; in assay [3] (A549) it was less than 5.30.

With `C=CC(=O)N1CCN([C@@H]2CN(c3cc(N4CCC5(CC4)C(=O)C4(COC4)c4nccc(C)c45)nc(C(F)(F)F)n3)[C@@H]2C)CC1` [Compound 3-099, 4′-methyl-1″-(6-((2R,3R)-2-methyl-3-(4-(2-propenoyl)-1-piperazinyl)-1-azetidinyl)-2-(trifluoromethyl)-4-pyrimidinyl)dispiro[oxetane-3,7′-cyclopenta[b]pyridine-5′,4″-piperidin]-6′-one], the pIC50 in assay [1] was 7.39; in assay [2] (Homo sapiens, MIA PaCa-2, 72 h), 6.78; in assay [3] (A549), less than 5.30.

On to `C=CC(=O)N1CCN([C@@H]2CN(c3cc(N4CCC5(C[C@H]4C)OCC=C5C)nc(C(F)(F)F)n3)[C@@H]2C)CC1` (stereo partly drawn) [Compound 3-005, 1-(4-((2R,3R)-1-(6-(4.7-dimethyl-1-oxa-8-azaspiro[4.5]dec-3-en-8-yl)-2-(trifluoromethyl)pyr-imidin-4-yl)-2-methylazetidin-3-yl)piperazin-1-yl)prop-2-en-1-one], for which the pIC50 in assay [1] is 6.74; in assay [2] (Homo sapiens, MIA PaCa-2, 72 h), 6.20; in assay [3] (A549), less than 5.30.

For the compound `C=CC(=O)N1CCN(C2CN(c3cc(N4CCC5(C=CCO5)CC4)nc(C(F)(F)F)c3C#N)C2)CC1` [Compound 3-059, 4-(3-(4-Acryloylpiperazin-1-yl)azetidin-1-yl)-6-(1-oxa-8-azaspiro[4.5]dec-3-en-8-yl)-2-(trifluoromethyl)nicotinonitrile], the pIC50 in assay [1] was 6.67; in assay [2] (Homo sapiens, MIA PaCa-2, 72 h) it was 6.24; in assay [3] (A549) it was less than 5.30.

Turning to `C=CC(=O)N1CCN([C@@H]2CN(c3cc(N4CC[C@]5(C[C@H]4C)OCCn4ncc(C)c45)nc(C(F)(F)F)n3)[C@@H]2C)CC1` [Compound 3-077, 1-(4-((2R,3R)-1-(6-((2R,4R)-2,3′-dimethyl-6′,7′-dihydro-1H-spiro[piperidine-4,4′-pyrazolo[5,1-c][1,4]oxazin]-1-yl)-2-(trifluoromethyl)-4-pyrimidinyl)-2-methyl-3-azetidinyl)-1-piperazinyl)-2-propen-1-one], the pIC50 in assay [1] was 7.68; in assay [2] (Homo sapiens, MIA PaCa-2, 72 h), 6.74; in assay [3] (A549) it was less than 5.30.

Regarding `C=CC(=O)N1CCN([C@@H]2CN(c3cc(N4CCC5(CC4)OC[C@@H](COC)n4ncc(C)c45)nc(C(F)(F)F)n3)[C@@H]2C)CC1` [Compound 3-097, 1-(4-((2R,3R)-1-(6-((7′R)-7′-(methoxymethyl)-3′-methyl-6′,7′-dihydro-1H-spiro[piperidine-4,4′-pyrazolo[5,1-c][1.4]oxazin]-1-yl)-2-(trifluoromethyl)-4-pyrimidinyl)-2-methyl-3-azetidinyl)-1-piperazinyl)-2-propen-1-one], the pIC50 is 7.07 in assay [1]; 6.65 in assay [2] (Homo sapiens, MIA PaCa-2, 72 h); less than 5.30 in assay [3] (A549).

For `C=CC(=O)N1CCN(C2CN(c3cc(N4CCC5(CC4)CC(Br)=NO5)nc(C(F)(F)F)c3C#N)C2)CC1` [Compound 3-017, 4-(3-(4-acryloylpiperazin-1-yl)-azetidin-1-yl)-6-(3-bromo-1-oxa-2.8-diazaspiro[4.5]dec-2-en-8-yl)-2-(trifluoromethyl)nicotinonitrile], the pIC50 in assay [1] was 6.08; in assay [2] (Homo sapiens, MIA PaCa-2, 72 h), 5.70; in assay [3] (A549) it was less than 5.30.

In the case of `C=CC(=O)N1CCN([C@@H]2CN(c3cc(N4CCC5(CC4)OCCc4ncsc45)nc(C(F)(F)F)n3)[C@@H]2C)CC1` [Compound 3-002, 1-(4-((2R,3R)-1-(6-(6′,7′-Dihydrospiro[piperidine-4,4′-pyrano[4,3-d]thiazol]-1-yl)-2-(trifluoromethyl)pyrimidin-4-yl)-2-methylazetidin-3-yl)piperazin-1-yl)prop-2-en-1-one], the pIC50 in assay [1] was 6.50; in assay [2] (Homo sapiens, MIA PaCa-2, 72 h) it was 6.20; in assay [3] (A549), less than 5.30.

For the compound `C=CC(=O)N1CCN(C2CN(c3cc(N4CCC5(CC4)OC(C)C=C5C)nc(C(F)(F)F)c3C#N)C2)CC1` (single isomer, unassigned) [Compound 3-054-2], the figures for the pIC50 in assay [1], in assay [2] (72 h) and in assay [3] were 6.42, 5.83 and less than 5.30, respectively.

`C=CC(=O)N1CCN([C@@H]2CN(c3cc(N4CCC5(C[C@H]4C)OCC=C5C)nc(C(F)F)n3)[C@@H]2C)CC1` (stereo partly drawn) [Compound 3-003, 1-(4-((2R,3R)-1-(2-(Difluoromethyl)-6-((7R)-4,7-dimethyl-1-oxa-8-azaspiro[4.5]dec-3-en-8-yl)pyrimidin-4-yl)-2-methylazetidin-3-yl)piperazin-1-yl) prop-2-en-1-one]: the pIC50 in assay [1] is 6.29; in assay [2] (Homo sapiens, MIA PaCa-2, 72 h), 6.08; in assay [3] (A549), less than 5.30.

Take `C=CC(=O)N1CCN([C@@H]2CN(c3cc(N4CCC5(CC4)OCC(CO)n4ncc(C)c45)nc(C(F)(F)F)n3)[C@@H]2C)CC1` (stereo partly drawn) [Compound 3-081, 1-(4-((2R,3R)-1-(6-(7′-(hydroxymethyl)-3′-methyl-6′,7′-dihydrospiro[piperidine-4,4′-pyrazolo[5,1-c][1.4]oxazin]-1-yl)-2-(trifluoromethyl)pyrimidin-4-yl)-2-methylazetidin-3-yl)piperazin-1-yl)prop-2-en-1-one]: the pIC50 in assay [1] was 7.20; in assay [2] (Homo sapiens, MIA PaCa-2, 72 h) it was 6.88; in assay [3] (A549), less than 5.30.

For the compound `C=CC(=O)N1CCN([C@@H]2CN(c3cc(N4CCC5(CC4)OCC=C5C)nc(C(F)(F)F)c3C#N)[C@@H]2C)CC1` [Compound 3-052, 4-((2R,3R)-3-(4-Acryloylpiperazin-1-yl)-2-methylazetidin-1-yl)-6-(4-methyl-1-oxa-8-azaspiro[4.5]dec-3-en-8-yl)-2-(trifluoromethyl)nicotinonitrile], the pIC50 in assay [1] is 6.79; in assay [2] (Homo sapiens, MIA PaCa-2, 72 h) it was 6.60; in assay [3] (A549), 5.34.

A word on the pIC50: it is the negative decadic logarithm of the IC50, by convention in mol/L.

Source of the values: US20260327243A1, “SPIRO-HETEROCYCLIC INHIBITORS OF KRAS G12C MUTANT PROTEINS AND USES THEREOF” (AMGEN INC., priority 2023, published 2026).
